Patent publication US11352637B2, “Methods and compositions for herbicide tolerance in plants” (MONSANTO TECHNOLOGY LLC, priority 2017, dated 2022)
Read-outs that look alike come from different tables or passages of the source.

Assays:
[1] = system: KsIAA16R in combination with KsTIR1; assay: Yeast two-hybrid (Y2H) assay: KsIAA16R binding with KsTIR1 in presence of auxin; design: species or system Kochia scoparia; details: compared with KsIAA16S; concentration not given
Method: (§1) Yeast two-hybrid (Y2H) studies were conducted using the Matchmaker® Gold Yeast Two-Hybrid System: vectors, transformation protocols and yeast strains (Clonetech Laboratories, Inc.). The coding sequences for the KsIAA16R (SEQ ID NO: 220), KsIAA16S (SEQ ID NO: 218), KsTIR1 (SEQ ID NO: 285), KsAFB6 (SEQ ID NO: 287), KsAFB2 (SEQ ID NO: 289), and KsAFB5 (SEQ ID NO: 291) were PCR amplified using primers specified in Table 2.
(§2) PCR products were gel purified and recombined into NdeI/NotI digested pGADT7 or pGBKT7 vectors using the In-Fusion® cloning system (Clonetech Laboratories, Inc.). The pGBKT7 vector contained the GAL4 DNA binding domain, rendering the fusions as the “bait,” whereas the “prey” were the fusions containing the pGADT7 vector, which contained the GAL4 activation domain. All vectors were first sequence verified and then the listed vector combinations were co-transformed into the yeast strain, Y2HGold. […] Transformants were plated on SC-Trp-Leu plates to select for those containing both plasmids. Four healthy colonies were selected at random and resuspended into 300 μL of 0.1% agar in water. Five μL of this dilution was replica spotted onto each plate. Plates were incubated at 30° C. for 3 days prior to evaluation of colony growth. […]

[2] = system: KsIAA16R in combination with KsAFB6; assay: Yeast two-hybrid (Y2H) assay: KsIAA16R binding with KsAFB6 in presence of auxin; design: species or system Kochia scoparia
Method: as §1
(§3) PCR products were gel purified and recombined into NdeI/NotI digested pGADT7 or pGBKT7 vectors using the In-Fusion® cloning system (Clonetech Laboratories, Inc.). The pGBKT7 vector contained the GAL4 DNA binding domain, rendering the fusions as the “bait,” whereas the “prey” were the fusions containing the pGADT7 vector, which contained the GAL4 activation domain. All vectors were first sequence verified and then the listed vector combinations were co-transformed into the yeast strain, Y2HGold. […] Transformants were plated on SC-Trp-Leu plates to select for those containing both plasmids. Four healthy colonies were selected at random and resuspended into 300 μL of 0.1% agar in water. Five μL of this dilution was replica spotted onto each plate. Plates were incubated at 30° C. for 3 days prior to evaluation of colony growth.
(§4) This method enabled the study of the binding/interaction of the Kochia R and S alleles of KsIAA16 with each of the Kochia TIR/AFB homologs (KsTIR1 (SEQ ID NO: 285), and KsAFB6 (SEQ ID NO: 287)) in the absence or presence of 100 μM or 500 μM exogenous concentrations of IAA, NAA, dicamba, and 2,4-D, picloram, triclopyr, quinclorac, fluroxypyr or phenylacetic acid (PAA).

[3] = system: KsIAA16 (R and S alleles) with KsTIR1 and/or KsAFB6; assay: Y2H assay, summary statements over the protein combinations tested; format: binding, Kochia scoparia; details: for Facilitation of interaction of KsIAA16R with KsTIR1 and/or KsAFB6: at the concentrations tested
Method: as §1, §3, §4

[4] = system: seedlings of the R and S Kochia biotypes; assay: Root elongation response of Kochia seedlings; format: in vivo, Kochia scoparia; details: R biotype seedlings; FIG. 5
Method: The root elongation response of seedlings from the R and S Kochia biotypes was tested to determine if the R biotype response was consistent with the Y2H findings. For root elongation studies, plant nutrient media was used, with 0.5% sucrose. Seeds were surface sterilized in 30% bleach with 0.1% Triton-X100 for 10 to 30 minutes, then rinsed twice in sterile water and resuspended in 0.1% agar for plating. Root lengths were measured to the nearest millimeter, and the average root length of 12 individuals was calculated unless otherwise noted.

[5] = system: R and S Kochia biotypes; assay: Greenhouse spray test for cross-resistance of Kochia R-biotype; format: in vivo, Kochia scoparia; details: all treatments, track sprayer, 10 to 15 cm tall plants
Description: To elucidate whether the Kochia R-biotype is cross resistant to 2,4-D or fluroxypyr, greenhouse grown 10 to 15 cm tall Kochia plants were sprayed with either Dicamba at 0,140, 280, 560, 2240, 4480, 6720, 8960, or 17920 g a.e.ha^−1; 2,4-D at 0, 70, 140, 280, 560, 1120, 2240, 4480, 6720, 8960 g a.e.ha^−1 or fluroxypyr at 0, 17.5, 35, 70, 140, 280, 420, 560, 1120, 2240 g a.e.ha^−1 with a track sprayer. […]

[6] = system: KsIAA16S in combination with KsTIR1; assay: Yeast two-hybrid (Y2H) assay: KsIAA16S binding with KsTIR1 in presence of auxin; design: species or system Kochia scoparia; details: allele KsIAA16S, yeast colony growth
Method: as §1, §2

[7] = system: Kochia F2 progeny (S/S, R/S, R/R); details: spray 1120 g/ha
Method: To determine whether the KsIAA16R allele co-segregates with the dicamba resistance phenotype, spray tests were performed on Kochia populations comprising S and R plants. Crosses between S and R individuals were performed, utilizing the S biotype as the female and the R biotype as the male in order to identify individuals resulting from cross pollination. […] Several verified heterozygous F1 plants were selected for F2 seed production. In addition, a subset of S/S and R/S individuals from the F1 generation was subjected to dicamba sprays to ensure that the marker could effectively identify the R allele.
To determine whether the KsIAA16R allele co-segregates with the dicamba resistance phenotype, 720 F2 progeny from verified heterozygous F1 parental plants were sampled and genotyped, and tolerance to a dicamba spray concentration double the typical dicamba field use rate (1120 g/ha) was determined. Plant identity was maintained throughout the experiment, and genotype and percent visible dicamba injury was determined for each of the F2 progeny.

[8] = system: transgenic Arabidopsis carrying AtIAA16P:KsIAA16 constructs; assay: Root elongation inhibition assay of T2 transgenic Arabidopsis on plant nutrient plus IAA or dicamba; format: in vivo, Arabidopsis thaliana; details: for Root Length (in mm) of T2 transgenics on plant nutrient plus auxin / Root Length (in mm) on plant nutrient plus auxin: +5 μM auxin; for Root Length (in mm) on plant nutrient plus auxin: non-transgenic WT
Description: To determine if the presence of the KsIAA16R allele alone was necessary and sufficient to confer dicamba resistance, several transgene expression constructs were generated for study of KsIAA16 in Arabidopsis. Agrobacterium tumefaciens was used to introduce the binary vectors in the plants using the floral dip method (Clough and Bent, 1998). Vectors contained either the ethanol inducible alcA promoter elements (Salter et al., 1998), the constitutive CaMV35S promoter, or the native Arabidopsis IAA16 promoter (AtIAA16P) driving either KsIAA16R (SEQ ID NO: 220) or KsIAA16S (SEQ ID NO: 218). GUS reporter constructs contained a 2.5 kb genomic DNA fragment from directly upstream of KsIAA16, which is expected to contain most of the promoter elements as well as the 5′UTR, driving uidA. All constructs contained either a Spectinomycin resistance gene (SPEC) or a glufosinate resistance gene (BAR) in the T-DNA region to serve as the selectable marker. For all constructs, T1 seed was harvested, surface sterilized, and plated on the appropriate selective media to identify independent T1 transformants. Single seed decent and segregation on selective media was used to estimate transgene insertion number and identify homozygous lines. For induction of the P-Alc promoter, ethanol was added to a final concentration of 0.01% just before plates were poured, and plates were used immediately. All plates were grown in a Percival growth chamber (Percival Scientific, Inc.) at 22° C. with 16 hour day/8 hour night light cycle and a light intensity of […]. Relative humidity was maintained at 50%. GUS assays were performed according to standard protocols. Briefly, a 20 mg/mL X-Gluc (GoldBio, St. Louis, Mo.) stock in dimethylformamide was diluted into 50 mM phosphate buffer, pH 7.0, to a final concentration of 1 mg/mL. This solution was added to plant tissues, and samples were placed under vacuum for 5 minutes to ensure penetration of the solution into the tissues. Samples were covered in foil to prevent light entry and place at 37° C. for 24 hours to allow color development. Staining solution was removed and chlorophyll was cleared by incubating samples in 50% ethanol for several hours.

[9] = system: dicamba resistant Kochia biotype

Structure (SMILES) | Ability of KsIAA16R to interact with KsTIR1 in the presence of the auxin [1] | Facilitation of interaction of KsIAA16R with KsTIR1 and/or KsAFB6 [3] | Root elongation inhibition of the R Kochia biotype [4] | Visible injury at 14 days after treatment (DAT) [5] | Root Length (in mm) of T2 transgenics on plant nutrient plus auxin ([8]; line AtIAA16P:KsIAA16R_T2-1) [mm] | Root Length (in mm) of T2 transgenics on plant nutrient plus auxin ([8]; line AtIAA16P:KsIAA16R_T2-2) [mm] | Root Length (in mm) of T2 transgenics on plant nutrient plus auxin ([8]; line AtIAA16P:KsIAA16R_T2-3) [mm] | Root Length (in mm) of T2 transgenics on plant nutrient plus auxin ([8]; line AtIAA16P:KsIAA16R_T2-4) [mm] | Root Length (in mm) of T2 transgenics on plant nutrient plus auxin ([8]; line AtIAA16P:KsIAA16S_T2-1) [mm] | Root Length (in mm) of T2 transgenics on plant nutrient plus auxin ([8]; line AtIAA16P:KsIAA16S_T2-2) [mm] | Root Length (in mm) of T2 transgenics on plant nutrient plus auxin ([8]; line AtIAA16P:KsIAA16S_T2-3) [mm] | Root Length (in mm) of T2 transgenics on plant nutrient plus auxin ([8]; line AtIAA16P:KsIAA16S_T2-4) [mm] | Root Length (in mm) on plant nutrient plus auxin [8] [mm] | other results
O=C(O)COc1ccc(Cl)cc1Cl [2,4-D, 2,4-dichlorophenoxyacetic acid] | decreased ability to interact | cannot | resistant | observed |  |  |  |  |  |  |  |  |  | Interaction between KsIAA16R and KsAFB6 in the presence of the auxin ([2]; at the concentrations tested): not observed
COc1c(Cl)ccc(Cl)c1C(=O)O [Dicamba, 3,6-dichloro-2-methoxybenzoic acid] | decreased ability to interact | cannot | resistant | observed | 12.42 ± 1.27 | 15.5 ± 1.45 | 15.58 ± 1.57 | 17.5 ± 2.12 | 13.50 ± 1.01 | 11.42 ± 1.28 | 14.17 ± 0.9 | 10.67 ± 0.72 | 9.08 ± 0.66 | Ability to bind in combination with KsTIR1 ([6]; auxin [100 mM] (text: 100 μM)): exhibited interaction; Ability to bind in combination with KsTIR1 ([6]; auxin [500 mM] (text: 500 μM)): exhibited interaction; mean injury rating ([7]; R/R individuals): 24.6%; mean injury rating ([7]; R/S individuals): 35.9%; mean injury rating ([7]; S/S individuals): 82.3%; average injury per genotype (percent visible dicamba injury) ([7]; genotype R/R): about 20%; average injury per genotype (percent visible dicamba injury) ([7]; genotype R/S): about 40%; average injury per genotype (percent visible dicamba injury) ([7]; genotype S/S): about 80%; Resistance in root elongation inhibition assay ([8]; four independent transformant lines carrying AtIAA16P:KsIAA16R): showed resistance; Resistance in root elongation inhibition assay ([8]; only one of the four lines carrying AtIAA16P:KsIAA16S): very slight resistance; fold increase in dicamba resistance [9]: ~30 fold
Nc1c(Cl)c(F)nc(OCC(=O)O)c1Cl [Fluroxypyr, 4-amino-3,5-dichloro-6-fluoro-2-pyridyloxyacetic acid] |  | cannot |  | observed |  |  |  |  |  |  |  |  |  | Y2H interaction in the presence of the auxin ([3]; any of the protein combinations tested): No interaction
O=C(O)Cc1c[nH]c2ccccc12 [IAA, indole-3-acetic acid] |  | can facilitate some interaction | remained sensitive |  | 12.17 ± 1.01 | 18.17 ± 3.09 | 22.75 ± 2.09 | 27.25 ± 1.88 | 7.0 ± 0.77 | 9.5 ± 0.84 | 5.67 ± 0.54 | 5 ± 0.34 | 5.83 ± 0.24 | Ability of KsIAA16R to interact with KsAFB6 in the presence of the auxin ([2]; only the higher concentration could facilitate binding): reduced ability to interact; Resistance to root inhibition ([8]; several lines from both constructs): slight resistance
